Measurements as given in patent US11485742B2, “2-azaspiro[3.4]octane derivatives as M4 agonists” (NOVARTIS AG, priority 2019, dated 2022).

Target: T1, human cloned CHRM3 receptor (Homo sapiens, UniProt P20309)
T1 construct: expressed in transfected cells; host or cells: CHO-K1 (M3_CHO)
Test: CHRM3 Ca++ Flux Assay (M3_CHO cells, agonist mode)
Format: cell-based
Details: for Emax: Percent Activity (PA) measured to EC100 of Carbachol, read-out: M3 FDSS PA %; for EC50: agonist mode, geometric mean if tested more than once, read-out: M3 FDSS EC50
Summary of the method: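 CHO-K1 cells stably expressing human M3 or M5 receptor, dye-loaded ≥1 h, treated with 11-point compound doses in triplicate; Ca++ flux read over 3 min (FDSS). Agonist-mode four-parameter fit; percent activity relative to carbachol EC100; repeat tests reported as geometric mean.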

T1 sequence (P20309 whole entry): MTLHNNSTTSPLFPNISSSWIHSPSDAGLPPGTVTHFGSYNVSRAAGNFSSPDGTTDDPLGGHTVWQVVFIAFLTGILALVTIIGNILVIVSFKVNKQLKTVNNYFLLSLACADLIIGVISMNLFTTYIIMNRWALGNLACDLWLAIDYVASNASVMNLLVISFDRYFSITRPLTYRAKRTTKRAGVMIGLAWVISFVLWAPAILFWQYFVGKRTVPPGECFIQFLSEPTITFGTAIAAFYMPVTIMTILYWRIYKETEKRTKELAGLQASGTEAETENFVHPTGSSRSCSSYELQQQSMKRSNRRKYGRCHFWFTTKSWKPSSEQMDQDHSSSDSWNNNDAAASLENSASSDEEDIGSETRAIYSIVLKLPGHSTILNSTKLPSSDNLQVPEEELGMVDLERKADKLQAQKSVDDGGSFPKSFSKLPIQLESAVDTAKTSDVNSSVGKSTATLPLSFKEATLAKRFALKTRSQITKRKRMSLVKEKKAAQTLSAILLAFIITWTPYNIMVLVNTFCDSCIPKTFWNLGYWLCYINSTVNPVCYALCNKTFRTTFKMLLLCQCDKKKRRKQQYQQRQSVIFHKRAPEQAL

| Structure (SMILES) | Emax [%] | EC50 [µM] |
| --- | --- | --- |
| Fc1ccc(OCC2CC3(COC3)C2)c(C2CCN([C@@H]3COC4(C3)CN(c3nnco3)C4)CC2)c1 [Example 2S, (S)-7-(4-(2-((2-oxaspiro[3.3]heptan-6-yl)methoxy)-5-fluorophenyl)piperidin-1-yl)-2-(1,3,4-oxadiazol-2-yl)-5-oxa-2-azaspiro[3.4]octane] | 0 | > 25 |
| CCc1nnc(COc2ccc(F)cc2C2CCN([C@@H]3COC4(C3)CN(c3nnco3)C4)CC2)s1 [Example 2T, (S)-7-(4-(2-((5-ethyl-1,3,4-thiadiazol-2-yl)methoxy)-5-fluorophenyl)piperidin-1-yl)-2-(1,3,4-oxadiazol-2-yl)-5-oxa-2-azaspiro[3.4]octane] | 0 | > 25 |
| OC1(COc2ccc(F)cc2C2CCN([C@@H]3COC4(C3)CN(c3nnco3)C4)CC2)COC1 [Example 2U, (S)-3-((2-(1-(2-(1,3,4-oxadiazol-2-yl)-5-oxa-2-azaspiro[3.4]octan-7-yl)piperidin-4-yl)-4-fluorophenoxy)methyl)oxetan-3-ol] | 0 | > 25 |
| CC(C)(O)CCOc1cc(F)ccc1C1CCN([C@@H]2COC3(C2)CN(c2nncs2)C3)CC1 [Example 5V, (S)-4-(2-(1-(2-(1,3,4-thiadiazol-2-yl)-5-oxa-2-azaspiro[3.4]octan-7-yl)piperidin-4-yl)-5-fluorophenoxy)-2-methylbutan-2-ol] | 0 | > 25 |
| Fc1ccc(OC2CC3(COC3)C2)c(C2CCN([C@@H]3COC4(C3)CN(c3nncs3)C4)CC2)c1 [Example 5W, (S)-7-(4-(2-((2-oxaspiro[3.3]heptan-6-yl)oxy)-5-fluorophenyl)piperidin-1-yl)-2-(1,3,4-thiadiazol-2-yl)-5-oxa-2-azaspiro[3.4]octane] | 0 | > 25 |
| Fc1ccc(OC[C@H]2CCOC2)c(C2CCN([C@@H]3COC4(C3)CN(c3nncs3)C4)CC2)c1 [Example 5X, (S)-7-(4-(5-fluoro-2-(((S)-tetrahydrofuran-3-yl)methoxy)phenyl)piperidin-1-yl)-2-(1,3,4-thiadiazol-2-yl)-5-oxa-2-azaspiro[3.4]octane] | 0 | > 25 |
| CC(C)(O)COc1ccccc1C1CCN([C@@H]2COC3(C2)CN(c2ncns2)C3)CC1 [Example 5Y, (S)-1-(2-(1-(2-(1,2,4-thiadiazol-5-yl)-5-oxa-2-azaspiro[3.4]octan-7-yl)piperidin-4-yl)phenoxy)-2-methylpropan-2-ol] | 0 | > 25 |
| Fc1ccc(OC2CCOCC2)c(C2CCN([C@@H]3COC4(C3)CN(c3ncon3)C4)CC2)c1 [Example 6A, (S)-7-(4-(5-fluoro-2-((tetrahydro-2H-pyran-4-yl)oxy)phenyl)piperidin-1-yl)-2-(1,2,4-oxadiazol-3-yl)-5-oxa-2-azaspiro[3.4]octane] | 0 | > 25 |
| Fc1ccc(OC2COC2)c(C2CCN([C@@H]3COC4(C3)CN(c3ncon3)C4)CC2)c1 [Example 6B, (S)-7-(4-(5-fluoro-2-(oxetan-3-yloxy)phenyl)piperidin-1-yl)-2-(1,2,4-oxadiazol-3-yl)-5-oxa-2-azaspiro[3.4]octane] | 0 | > 25 |
| Fc1ccc(OC2CC3(COC3)C2)c(C2CCN([C@@H]3COC4(C3)CN(c3ncon3)C4)CC2)c1 [Example 6C, (S)-7-(4-(2-((2-oxaspiro[3.3]heptan-6-yl)oxy)-5-fluorophenyl)piperidin-1-yl)-2-(1,2,4-oxadiazol-3-yl)-5-oxa-2-azaspiro[3.4]octane] | 0 | > 25 |
| Fc1ccc(OC2CC3(COC3)C2)c(C2CCN([C@H]3COC4(C3)CN(c3nnco3)C4)CC2)c1 [Example 7A, (R)-7-(4-(2-((2-oxaspiro[3.3]heptan-6-yl)oxy)-5-fluorophenyl)piperidin-1-yl)-2-(1,3,4-oxadiazol-2-yl)-5-oxa-2-azaspiro[3.4]octane] | 0 | > 25 |

Continued, values first:

| Emax [%] | EC50 [µM] | Structure (SMILES) |
| --- | --- | --- |
| 0 | > 25 | Cc1cc(COc2ccc(F)cc2C2CCN([C@@H]3COC4(C3)CN(c3nnco3)C4)CC2)on1 [Example 2G, (S)-7-(4-(5-fluoro-2-((3-methylisoxazol-5-yl)methoxy)phenyl)piperidin-1-yl)-2-(1,3,4-oxadiazol-2-yl)-5-oxa-2-azaspiro[3.4]octane] |
| 0 | > 25 | Fc1ccc(OCC2COC2)c(C2CCN([C@@H]3COC4(C3)CN(c3nnco3)C4)CC2)c1 [Example 2H, (S)-7-(4-(5-fluoro-2-(oxetan-3-ylmethoxy)phenyl)piperidin-1-yl)-2-(1,3,4-oxadiazol-2-yl)-5-oxa-2-azaspiro[3.4]octane] |
| 0 | > 25 | Fc1ccc(OCc2ncccn2)c(C2CCN([C@@H]3COC4(C3)CN(c3nnco3)C4)CC2)c1 [Example 2I, (S)-7-(4-(5-fluoro-2-(pyrimidin-2-ylmethoxy)phenyl)piperidin-1-yl)-2-(1,3,4-oxadiazol-2-yl)-5-oxa-2-azaspiro[3.4]octane] |
| 0 | > 25 | Fc1ccc(OCC2(F)COC2)c(C2CCN([C@@H]3COC4(C3)CN(c3nnco3)C4)CC2)c1 [Example 2J, (S)-7-(4-(5-fluoro-2-((3-fluorooxetan-3-yl)methoxy)phenyl)piperidin-1-yl)-2-(1,3,4-oxadiazol-2-yl)-5-oxa-2-azaspiro[3.4]octane] |
| 0 | > 25 | CC1(COc2ccc(F)cc2C2CCN([C@@H]3COC4(C3)CN(c3nnco3)C4)CC2)COC1 [Example 2K, (S)-7-(4-(5-fluoro-2-((3-methyloxetan-3-yl)methoxy)phenyl)piperidin-1-yl)-2-(1,3,4-oxadiazol-2-yl)-5-oxa-2-azaspiro[3.4]octane] |
| 0 | > 25 | Fc1ccc(OC2CC3(COC3)C2)c(C2CCN([C@@H]3COC4(C3)CN(c3nnco3)C4)CC2)c1 [Example 2L, (S)-7-(4-(2-((2-oxaspiro[3.3]heptan-6-yl)oxy)-5-fluorophenyl)piperidin-1-yl)-2-(1,3,4-oxadiazol-2-yl)-5-oxa-2-azaspiro[3.4]octane] |
| 0 | > 25 | Fc1ccc(OC[C@H]2CCCO2)c(C2CCN([C@@H]3COC4(C3)CN(c3nnco3)C4)CC2)c1 [Example 2M, (S)-7-(4-(5-fluoro-2-(((R)-tetrahydrofuran-2-yl)methoxy)phenyl)piperidin-1-yl)-2-(1,3,4-oxadiazol-2-yl)-5-oxa-2-azaspiro[3.4]octane] |
| 0 | > 25 | CCC1(COc2ccc(F)cc2C2CCN([C@@H]3COC4(C3)CN(c3nnco3)C4)CC2)COC1 [Example 2P, (S)-7-(4-(2-((3-ethyloxetan-3-yl)methoxy)-5-fluorophenyl)piperidin-1-yl)-2-(1,3,4-oxadiazol-2-yl)-5-oxa-2-azaspiro[3.4]octane] |
